Experimental data taken from patent US9499509B2, “Dihydrochalcone derivatives and their use as antibiotic agents” (UNIVERSITÉ DU QUÉBEC À CHICOUTIMI, priority 2012, dated 2016).
Like-named read-outs stand apart in the source and are kept apart here.

Columns and labels:
Enterococcus faecalis = assay: Antibiotic assay (resazurin, Example 1), Enterococcus faecalis; format: cell-based; conditions: for IC50: read-out: IC50; for activity against Enterococcus faecalis: in words
Description: (§1) Bacteria Strain. […] The MRSA were obtained as further described below.
(§2) Antibiotic agents. Cyprofloxacin and erythromycin were provided by Sigma-Aldrich. Gentamicin sulfate and vancomycin hydrochloride were provided by Calbiochem.
(§3) Five additional strains were tested: Streptococcus pneumoniae, Streptococcus agalactiae, Streptococcus pyogenes, Enterococcus faecalis and Corynebacterium jeikeium.

S. epidermidis = assay: Antibiotic assay (resazurin, Example 1), S. epidermidis strains; conditions: for activity on S. epidermidis compared with ciprofloxacin: in words
Description: The antibiotic assays were performed in 96-well plates (BD Falcon). The bacteria strains were inoculated in Nutrient Broth (BD) for the gram negative bacteria and Tryptic soy broth (BD) with 10% of defibrinated sheep blood (PML microbiological) for gram positive strain. All bacteria strains were dosed by spectrophotometry at 660 nm where 1 D.O=2×10^8 bacteria/mL. All bacteria were plated in their respective broth at a concentration of 450 000 bacteria/mL.
Compounds I, II and III were diluted in methanol and the above-noted antibiotic agents were diluted in water. The solvent concentration was 0.25%, which was not toxic for the bacteria. Compounds I, II and III and the above-noted antibiotic agents were tested at 8 different concentrations.
Each well contained: 100 μL of bacteria, 50 μL of the compounds tested (compound I, II, III or the above-noted antibiotic agent) and 50 μL of a 4% resazurin (Sigma) solution. The plates were incubated at 37° C. for 5 h. The fluorescence was read using a Fluoroskan Ascent™ FL (thermo) using an excitation wavelength of 530 nm and an emission wavelength of 590 nm.
Two different strains of Staphylococcus were tested, namely the S. epidermidis and the S. aureus strains.

Streptococcus pneumoniae = assay: Antibiotic assay (resazurin, Example 1), Streptococcus pneumoniae; format: cell-based; conditions: for IC50: read-out: IC50
Description: as §1, §2, §3

WS-1 cell lines = assay: Cytotoxicity assay on WS-1 (Example 1)
Description: Cytotoxicity assay. The cytotoxicity assay was performed in 96-well plates (BD Falcon). The WS-1 cell lines were provided by ATCC. The WS-1 was cultured in DMEM+10% fetal calf serum. The cells were plated in a volume of 100 μL at a density of 5000 cells per well and incubated at 37° C.+5% CO2 for 24 h to promote cell adhesion.
The plates were incubated at 37° C.+5% CO2 for 48 h. The cells were then washed with 100 μL of HBSS and 150 μL of a 2% resazurin were added to the wells.
The therapeutic index is the ratio between the toxicity on normal cells, in this case fibroblast, and the toxicity on bacteria.

Streptococcus agalactiae = assay: Antibiotic assay (resazurin, Example 1), Streptococcus agalactiae; format: cell-based; conditions: for IC50: read-out: IC50; for activity against Streptococcus agalactiae strain 14150: in words
Description: as §1, §2, §3

Streptococcus pyogenes = assay: Antibiotic assay (resazurin, Example 1), Streptococcus pyogenes; format: cell-based; conditions: for IC50: read-out: IC50; for activity against Streptococcus pyogenes strain 14152: in words
Description: as §1, §2, §3

S. aureus = assay: Antibiotic assay (resazurin, Example 1), S. aureus strains of Table 3; format: cell-based, Staphylococcus aureus; conditions: for IC50: read-out: IC50
Source text: as §1, §2

[1] = test system: methicillin-resistant Staphylococcus aureus (MRSA) strains; assay: Antibiotic assay (resazurin, Example 1), MRSA strains; format: cell-based; conditions: for IC50: read-out: IC50
Source text: as §1, §2
Isolation and identification of methicillin-resistant Staphylococcus aureus (MRSA) strains. From March 2007 to March 2008, 35 screening swabs from nares (n=31), throat (n=3), Groin pus (n=1) were obtained from patients hospitalized at Chicoutimi hospital. Identification of S. aureus was performed using the Slidex Staph-Kit (bioMerieux Vitek, Inc., Hazelwood, Mo.) according to the manufacturer's instructions. Quality control was performed with MRSA strain ATCC 43300 and S. aureus strain ATCC 25923. In addition, S. aureus profile was determined with API Staph test strip with bacterial suspension of saline McFarland of 0.5 (bioMerieux, Durham, N.C.) according to the manufacturer's protocol. API Staph strips were held for 24 h before the results were read. A latex agglutination (SLIDEX) test detecting methicilin resistance in Staphylococci based on the production of low-affinity PBP2a, which is encoded by the mecA gene was performed on all strains. An antibiogram was also performed to confirm the identification of MRSA strains using disk diffusion test.
Antibiotic susceptibility testing using disk diffusion method. The antimicrobial activity of different classes of antibiotics of the potential MRSA was determined by diffusion method (Kirby-Bauer) as described by NCCLS. The antibiotics tested included: penicillin (10 units), amoxicillin/clavulanic acid (20/10 μg), ciprofloxacin (5 μg), moxifloxacin (5 μg), levofloxacin (5 μg), clindamycin (15 μg), erythromycin (15 μg), cefoxitin (30 μg), linezolid (30 μg), trimethoprim/sulfomethoxazole (1.25/23.75 μg), rifampicin (5 μg), gentamicin (10 μg) and vancomycin (30 μg). The agar medium had pH 7.2 to 7.4 before inoculing potentiel MRSA. The antibiotics were maintained at 8° C. or lower −14° C. according to manufacturer's recommendations. The pure culture was inoculated on a non-selective plate for 18-24 h. Each colony was collected with a wire loop and transfered the growth to a tube containing 4 to 5 mL of a tryptic-soy broth. The inoculum density was standarized with BaSO4 using 0.5 McFarland standard. All strains were incubated at 37° C. until it achieves or exceeds the turbidity of 0.5 McFarland standard. Inoculation of the dried surface (Muller-Hinton agar plate) by streaking the swab over the entire sterile agar surface. This procedure was repeated two more times. After 15 min, the appropriate disk were applied on the surface with a sterile forceps. The inverted plates was placed in a incubator at 37° C./air/16 to 18 h or 24 h for vancomycin. The inhibition zones were measured with a millimetric ruler. Interpretation of zone sizes by references of the manufacturer. Quality control organisms used were ATCC strains number 25923.
MRSA. Ten (10) strains of MRSA obtained as described above were tested along with an S. aureus wild type (WT) strain (ATCC25923).

## O=C(CCc1ccccc1)c1c(O)cc(O)c(C/C=C/c2ccc(O)cc2)c1O [Compound III]
Enterococcus faecalis; Ent. Faecalis 14078
  Minimum Inhibitory Concentration (MIC): (>200) μM
  IC50: > 200 µM
Enterococcus faecalis; Ent. Faecalis 14115
  Minimum Inhibitory Concentration (MIC): (>200) μM
  IC50: > 200 µM
Enterococcus faecalis
  activity against Enterococcus faecalis: No activity
S. epidermidis; S. epidermidis 14069
  IC50: 4.5 ± 0.3 µM
  Minimum Inhibitory Concentration (MIC): (10.9) μM
S. epidermidis; S. epidermidis 14085
  IC50: 3.6 ± 0.4 µM
  Minimum Inhibitory Concentration (MIC): (11.6) μM
S. epidermidis; S. epidermidis 14093
  IC50: 6.3 ± 0.6 µM
  Minimum Inhibitory Concentration (MIC): (8.43) μM
S. epidermidis; S. epidermidis 14134
  IC50: 3 ± 0.6 µM
  Minimum Inhibitory Concentration (MIC): (14.7) μM
S. epidermidis; S. epidermidis 14143
  IC50: 4.41 ± 0.04 µM
  Minimum Inhibitory Concentration (MIC): (9) μM
S. epidermidis
  activity on S. epidermidis compared with ciprofloxacin: more active than ciprofloxacin
Streptococcus pneumoniae; Strep. pneumoniae 14070
  Minimum Inhibitory Concentration (MIC): (>200) μM
  IC50: 124 ± 5 µM
Streptococcus pneumoniae; Strep. pneumoniae 14112
  Minimum Inhibitory Concentration (MIC): (190) μM
  IC50: 89 ± 5 µM
Streptococcus pneumoniae; Strep. pneumoniae 14138
  Minimum Inhibitory Concentration (MIC): (>200) μM
  IC50: > 200 µM
Streptococcus pneumoniae; Strep. pneumoniae 14144
  Minimum Inhibitory Concentration (MIC): (>200) μM
  IC50: > 200 µM
Streptococcus pneumoniae; Strep. pneumoniae 14148
  Minimum Inhibitory Concentration (MIC): (200) μM
  IC50: 93 ± 7 µM
Streptococcus pneumoniae; in words
  activity against Streptococcus pneumoniae 14070 strain: active
  activity against Streptococcus pneumoniae strain 14144: not active
WS-1 cell lines; Table 5, WS-1, 48 h
  WS-1 (toxicity on normal cells, fibroblast): 20 ± 3
Streptococcus agalactiae; Strep. agalactiae 14150
  Minimum Inhibitory Concentration (MIC): (>200) μM
  IC50: 154 ± 2 µM
Streptococcus agalactiae; Strep. agalactiae 14151
  Minimum Inhibitory Concentration (MIC): (>200) μM
  IC50: > 200 µM
Streptococcus agalactiae; Strep. agalactiae 14153
  Minimum Inhibitory Concentration (MIC): (>200) μM
  IC50: > 200 µM
Streptococcus agalactiae
  activity against Streptococcus agalactiae strain 14150: active
Streptococcus pyogenes; Strep. pyogenes 14149
  Minimum Inhibitory Concentration (MIC): (>200) μM
  IC50: > 200 µM
Streptococcus pyogenes; Strep. pyogenes 14152
  Minimum Inhibitory Concentration (MIC): (>200) μM
  IC50: 174 ± 10 µM
Streptococcus pyogenes
  activity against Streptococcus pyogenes strain 14152: active
S. aureus; S. aureus 14094
  Minimum Inhibitory Concentration (MIC): (5.5) μM
  IC50: 2.4 ± 0.2 µM
S. aureus; S. aureus 14108
  Minimum Inhibitory Concentration (MIC): (5.25) μM
  IC50: 2.7 ± 0.2 µM
S. aureus; S. aureus 14118
  Minimum Inhibitory Concentration (MIC): (3.46) μM
  IC50: 2.3 ± 0.1 µM
S. aureus; S. aureus 14154
  Minimum Inhibitory Concentration (MIC): (4.95) μM
  IC50: 1.5 ± 0.1 µM
[1]; MRSA 1
  Minimum Inhibitory Concentration (MIC): (5.5) μM
  IC50: 2.4 ± 0.2 µM
[1]; MRSA 2
  Minimum Inhibitory Concentration (MIC): (4.89) μM
  IC50: 2.3 ± 0.2 µM
[1]; MRSA 3
  Minimum Inhibitory Concentration (MIC): (5.11) μM
  IC50: 2.2 ± 0.2 µM
[1]; MRSA 4
  Minimum Inhibitory Concentration (MIC): (4.53) μM
  IC50: 2.2 ± 0.2 µM
[1]; MRSA 5
  Minimum Inhibitory Concentration (MIC): (4.27) μM
  IC50: 2.3 ± 0.2 µM
[1]; MRSA 6
  Minimum Inhibitory Concentration (MIC): (5.03) μM
  IC50: 2.2 ± 0.2 µM
[1]; MRSA 7
  Minimum Inhibitory Concentration (MIC): (4.93) μM
  IC50: 2.4 ± 0.2 µM
[1]; MRSA 8
  Minimum Inhibitory Concentration (MIC): (4.98) μM
  IC50: 2.2 ± 0.2 µM
[1]; MRSA 9
  Minimum Inhibitory Concentration (MIC): (5.77) μM
  IC50: 2.3 ± 0.2 µM
[1]; MRSA 10
  Minimum Inhibitory Concentration (MIC): (5.31) μM
  IC50: 2.8 ± 0.2 µM

## COc1cc(O)c(C(=O)CCc2ccc(O)cc2)c(O)c1C/C=C/c1ccc(O)cc1 [Compound I]
Enterococcus faecalis; Ent. Faecalis 14078
  Minimum Inhibitory Concentration (MIC): (>200) μM
  IC50: > 200 µM
Enterococcus faecalis; Ent. Faecalis 14115
  Minimum Inhibitory Concentration (MIC): (>200) μM
  IC50: > 200 µM
Enterococcus faecalis
  activity against Enterococcus faecalis: No activity
S. epidermidis; S. epidermidis 14069
  IC50: 5.3 ± 0.2 µM
  Minimum Inhibitory Concentration (MIC): (19.9) μM
S. epidermidis; S. epidermidis 14085
  IC50: 4.5 ± 0.3 µM
  Minimum Inhibitory Concentration (MIC): (23.5) μM
S. epidermidis; S. epidermidis 14093
  IC50: 8.6 ± 0.6 µM
  Minimum Inhibitory Concentration (MIC): (11.6) μM
S. epidermidis; S. epidermidis 14134
  IC50: 3.7 ± 0.4 µM
  Minimum Inhibitory Concentration (MIC): (19) μM
S. epidermidis; S. epidermidis 14143
  IC50: 6.7 ± 0.3 µM
  Minimum Inhibitory Concentration (MIC): (15.2) μM
S. epidermidis
  activity on S. epidermidis compared with ciprofloxacin: more active than ciprofloxacin
Streptococcus pneumoniae; Strep. pneumoniae 14070
  Minimum Inhibitory Concentration (MIC): (74.1) μM
  IC50: 29 ± 5 µM
Streptococcus pneumoniae; Strep. pneumoniae 14112
  Minimum Inhibitory Concentration (MIC): (66.2) μM
  IC50: 29 ± 3 µM
Streptococcus pneumoniae; Strep. pneumoniae 14138
  Minimum Inhibitory Concentration (MIC): (>200) μM
  IC50: 142 ± 12 µM
Streptococcus pneumoniae; Strep. pneumoniae 14144
  Minimum Inhibitory Concentration (MIC): (>200) μM
  IC50: > 200 µM
Streptococcus pneumoniae; Strep. pneumoniae 14148
  Minimum Inhibitory Concentration (MIC): (81.2) μM
  IC50: 40 ± 4 µM
Streptococcus pneumoniae; in words
  activity against Streptococcus pneumoniae 14070 strain: active
  activity against Streptococcus pneumoniae strain 14112: active
  activity against Streptococcus pneumoniae strain 14138: had an activity
  activity against Streptococcus pneumoniae strain 14144: not active
  activity against Streptococcus pneumoniae strain 14148: active
WS-1 cell lines
  WS-1 (toxicity on normal cells, fibroblast): 49 ± 9
Streptococcus agalactiae; Strep. agalactiae 14150
  Minimum Inhibitory Concentration (MIC): (200) μM
  IC50: 144 ± 2 µM
Streptococcus agalactiae; Strep. agalactiae 14151
  Minimum Inhibitory Concentration (MIC): (>200) μM
  IC50: 198 ± 3 µM
Streptococcus agalactiae; Strep. agalactiae 14153
  Minimum Inhibitory Concentration (MIC): (>200) μM
  IC50: 174 ± 3 µM
Streptococcus agalactiae
  activity against Streptococcus agalactiae strain 14150: active
Streptococcus pyogenes; Strep. pyogenes 14149
  Minimum Inhibitory Concentration (MIC): (200) μM
  IC50: 118 µM
Streptococcus pyogenes; Strep. pyogenes 14152
  Minimum Inhibitory Concentration (MIC): (>200) μM
  IC50: 44 ± 10 µM
Streptococcus pyogenes
  activity against Streptococcus pyogenes strain 14152: active
S. aureus; S. aureus 14094
  Minimum Inhibitory Concentration (MIC): (6.54) μM
  IC50: 3.5 ± 0.3 µM
S. aureus; S. aureus 14108
  Minimum Inhibitory Concentration (MIC): (8.73) μM
  IC50: 2.7 ± 0.3 µM
S. aureus; S. aureus 14118
  Minimum Inhibitory Concentration (MIC): (5.27) μM
  IC50: 3.5 ± 0.1 µM
S. aureus; S. aureus 14154
  Minimum Inhibitory Concentration (MIC): (4.37) μM
  IC50: 2.3 ± 0.1 µM
[1]; MRSA 1
  Minimum Inhibitory Concentration (MIC): (5.11) μM
  IC50: 2.2 ± 0.2 µM
[1]; MRSA 2
  Minimum Inhibitory Concentration (MIC): (5.22) μM
  IC50: 2.2 ± 0.2 µM
[1]; MRSA 3
  Minimum Inhibitory Concentration (MIC): (5.54) μM
  IC50: 2.1 ± 0.2 µM
[1]; MRSA 4
  Minimum Inhibitory Concentration (MIC): (4.82) μM
  IC50: 2.1 ± 0.2 µM
[1]; MRSA 5
  Minimum Inhibitory Concentration (MIC): (5.07) μM
  IC50: 1.7 ± 0.2 µM
[1]; MRSA 6
  Minimum Inhibitory Concentration (MIC): (5.01) μM
  IC50: 2 ± 0.2 µM
[1]; MRSA 7
  Minimum Inhibitory Concentration (MIC): (4.39) μM
  IC50: 2.1 ± 0.2 µM
[1]; MRSA 8
  Minimum Inhibitory Concentration (MIC): (4.64) μM
  IC50: 2.1 ± 0.2 µM
[1]; MRSA 9
  Minimum Inhibitory Concentration (MIC): (5.00) μM
  IC50: 2.3 ± 0.2 µM
[1]; MRSA 10
  Minimum Inhibitory Concentration (MIC): (5.15) μM
  IC50: 2.6 ± 0.2 µM
